Test results from patent publication US8642317B2 (priority 2007, dated 2014).

Assays:
[1] = test system: bacterial isolate 180507-1 (IDAC)
[2] = test system: bacterial isolate 180507-1 (IDAC); format: cell-based

| Compound | degradation by the selected isolate (deepoxidation and/or deacylation) [1] | Reaction (sensitivity of the isolate) [2] |
| --- | --- | --- |
| 4-diacetoxyscirpenol | degraded | – |
| CC(=O)O[C@@H]1C[C@]2(C)[C@@]3(CO)[C@H](O)C(=O)C(C)=C[C@H]3O[C@H]1[C@@]21CO1 [3-acetyldeoxynivalenol] | degraded | – |
| CC(=O)OC[C@]12[C@H](O)C(=O)C(C)=C[C@H]1O[C@@H]1[C@H](O)C[C@@]2(C)[C@]12CO2 [15-acetyldeoxynivalenol] | degraded | – |
| CC(=O)OCC12CCC(C)=CC1OC1C(O)C(O)C2(C)C12CO2 (stereo not shown) [15-monoacetoxyscirpenol] | degraded | – |
| CC(=O)OC[C@]12C[C@H](OC(=O)CC(C)C)C(C)=C[C@H]1O[C@@H]1[C@H](O)[C@@H](O)[C@@]2(C)[C@]12CO2 [HT-2 toxin] | degraded | – |
| CC1=C[C@H]2O[C@@H]3[C@H](O)[C@@H](O)[C@](C)([C@@]2(CO)C[C@@H]1OC(=O)CC(C)C)[C@]31CO1 [T-2 triol] | degraded | – |
| CC(=O)O[C@@H]1[C@@H](O)[C@H]2O[C@@H]3C=C(C)C(=O)[C@@H](O)[C@]3(CO)[C@]1(C)[C@]21CO1 [fusarenon X] | degraded | – |
| CC(=O)OC[C@]12C[C@H](O)C(C)=C[C@H]1O[C@@H]1[C@H](O)[C@@H](OC(C)=O)[C@@]2(C)[C@]12CO2 [neosolaniol] | degraded | – |
| CC1=C[C@H]2O[C@@H]3[C@H](O)[C@@H](O)[C@](C)([C@@]2(CO)[C@H](O)C1=O)[C@]31CO1 [nivalenol] | degraded | – |
| Vancomysin | – | Sensitive |
